Laboratory results published in US20080261201A1, “Methods and compounds to alter virus infection” (priority 2006, published 2008).

System: Rac1
Experiment: HA-Rac1 incorporation into vesicular fractions of MCF-7 cells, Western blot
Assay type: cell-based
Details: IL-1β 1 ng/mL for 20 minutes
Method: Buoyant density centrifugation was used for subcellular fractionation and isolation of endosomes containing Nox2 activity. Cells were washed twice with ice-cold PBS and scrapped into a 1.5 mL microfuge tube using the same buffer. The cells were pelleted and resuspended in homogenization buffer (HMB) containing 0.25 M sucrose, 20 mM HEPES pH 7.4, 1 mM EDTA, and an EDTA-free protease inhibitor cocktail. The cells were homogenized using nitrogen cavitation in a cell disruption high-pressure chamber (Parr instruments, Moline, Ill.). The pressure was raised to 650-psi for 5 minutes and released suddenly. The homogenate was centrifuged at 3000×g for 15 minutes to pellet unbroken cells, nuclei, and heavy mitochondria. The heavy mitochondrial supernatant (HMS) was bottom loaded into an iodixanol discontinuous gradient in a 12.5 mL SW41Ti ultracentrifuge tube using a previously described method with modifications (Graham et al., 1994; Xia et al., 1998).
The discontinuous gradient was composed of 1.25 mL HMB without EDTA followed by bottom loading of the following % iodixanol steps sequentially with 1.0 mL 2.5%, 1.0 mL 5%, 1.5 mL 9%, 1.5 mL 14%, 2.5 mL 19%, 1.5 mL 26%, and finally the HMS in 2 mL 32%. Iodixanol concentrations were prepared fresh using a 50% iodixanol working solution (WS) diluted with HMB without EDTA. […]

## IL-1β: interleukin used to stimulate MCF-7 cells
  HA-Rac1 incorporation into crude vesicular fractions: significantly enhanced
